Measured values taken from US9469650B2, “Melampomagnolide B derivatives” (BOARD OF TRUSTEES OF THE UNIVERSITY OF ARKANSAS, priority 2013, dated 2016).

Assays:
U251 = experiment: panel of 60 human tumor cell lines, growth inhibition (CNS Cancer); conditions: U251
OVCAR-8 = experiment: panel of 60 human tumor cell lines, growth inhibition (Ovarian Cancer); conditions: OVCAR-8
OVCAR-5 = experiment: as above; conditions: OVCAR-5
DU-145 = experiment: panel of 60 human tumor cell lines, growth inhibition (Prostate Cancer); conditions: DU-145
SK-MEL-28 = experiment: panel of 60 human tumor cell lines, growth inhibition (Melanoma); conditions: SK-MEL-28
SK-MEL-5 = experiment: as above; conditions: 8K-MEL-5
SK-MEL-2 = experiment: as above; conditions: SK-MEL-2
SF-295 = experiment: panel of 60 human tumor cell lines, growth inhibition (CNS Cancer); conditions: SF-295
SK-OV-3 = experiment: panel of 60 human tumor cell lines, growth inhibition (Ovarian Cancer); conditions: SK-OV-3
K-562 = experiment: panel of 60 human tumor cell lines, growth inhibition (Leukemia); conditions: K-562
LOX IMVI = experiment: panel of 60 human tumor cell lines, growth inhibition (Melanoma)
OVCAR-3 = experiment: panel of 60 human tumor cell lines, growth inhibition (Ovarian Cancer); conditions: OVCAR-3
RXF 393 = experiment: panel of 60 human tumor cell lines, growth inhibition (Renal Cancer); conditions: RXF 393
NCI-H322M = experiment: panel of 60 human tumor cell lines, growth inhibition (Non-Small Cell Lung Cancer)
UACC-257 = experiment: panel of 60 human tumor cell lines, growth inhibition (Melanoma); conditions: UACC-257
BT-549 = experiment: panel of 60 human tumor cell lines, growth inhibition (Breast Cancer); conditions: BT-549
HOP-62 = experiment: panel of 60 human tumor cell lines, growth inhibition (Non-Small Cell Lung Cancer); conditions: HOP-62
A549/ATCC = experiment: as above; conditions: A549/ATCC

## C=C1C(=O)O[C@H]2[C@H]1CC/C(COC(=O)NC)=C\CC[C@@]1(C)O[C@@H]21 [JVM 2-57]
U251; Log10 Concentration −4.0
  Percent Growth: −100%
U251; Log10 Concentration −5.0
  Percent Growth: 81%
U251; Log10 Concentration −6.0
  Percent Growth: 92%
U251; Log10 Concentration −7.0
  Percent Growth: 97%
U251; Log10 Concentration −8.0
  Percent Growth: 99%
U251; NCI five dose
  GI50: 14.9 µM
  TGI: 2.81E−5
OVCAR-8; Log10 Concentration −4.0
  Percent Growth: −76%
OVCAR-8; Log10 Concentration −5.0
  Percent Growth: 30%
OVCAR-8; Log10 Concentration −6.0
  Percent Growth: 92%
OVCAR-8; Log10 Concentration −7.0
  Percent Growth: 160%
OVCAR-8; Log10 Concentration −8.0
  Percent Growth: 100%
OVCAR-8; NCI five dose
  GI50: 4.82 µM
  TGI: 1.93E−5
OVCAR-5; Log10 Concentration −4.0
  Percent Growth: −90%
OVCAR-5; Log10 Concentration −5.0
  Percent Growth: 24%
OVCAR-5; Log10 Concentration −6.0
  Percent Growth: 86%
OVCAR-5; Log10 Concentration −7.0
  Percent Growth: 84%
OVCAR-5; Log10 Concentration −8.0
  Percent Growth: 93%
OVCAR-5; NCI five dose
  GI50: 3.82 µM
  TGI: 1.62E−5
DU-145; Log10 Concentration −4.0
  Percent Growth: −97%
DU-145; Log10 Concentration −5.0
  Percent Growth: 19%
DU-145; Log10 Concentration −6.0
  Percent Growth: 93%
DU-145; Log10 Concentration −7.0
  Percent Growth: 103%
DU-145; Log10 Concentration −8.0
  Percent Growth: 104%
DU-145; NCI five dose
  GI50: 3.78 µM
  TGI: 1.45E−5
SK-MEL-28; Log10 Concentration −4.0
  Percent Growth: −79%
SK-MEL-28; Log10 Concentration −5.0
  Percent Growth: 24%
SK-MEL-28; Log10 Concentration −6.0
  Percent Growth: 91%
SK-MEL-28; Log10 Concentration −7.0
  Percent Growth: 91%
SK-MEL-28; Log10 Concentration −8.0
  Percent Growth: 98%
SK-MEL-28; NCI five dose
  GI50: 4.11 µM
  TGI: 1.72E−5
SK-MEL-5; Log10 Concentration −4.0
  Percent Growth: −73%
SK-MEL-5; Log10 Concentration −5.0
  Percent Growth: 56%
SK-MEL-5; Log10 Concentration −6.0
  Percent Growth: 97%
SK-MEL-5; Log10 Concentration −7.0
  Percent Growth: 98%
SK-MEL-5; Log10 Concentration −8.0
  Percent Growth: 100%
SK-MEL-5; NCI five dose
  GI50: 11.1 µM
  TGI: 2.70E−5
SK-MEL-2; Log10 Concentration −4.0
  Percent Growth: −70%
SK-MEL-2; Log10 Concentration −5.0
  Percent Growth: 53%
SK-MEL-2; Log10 Concentration −6.0
  Percent Growth: 99%
SK-MEL-2; Log10 Concentration −7.0
  Percent Growth: 99%
SK-MEL-2; Log10 Concentration −8.0
  Percent Growth: 96%
SK-MEL-2; NCI five dose
  GI50: 10.5 µM
  TGI: 2.69E−5
SF-295; Log10 Concentration −4.0
  Percent Growth: −30%
SF-295; Log10 Concentration −5.0
  Percent Growth: 76%
SF-295; Log10 Concentration −6.0
  Percent Growth: 93%
SF-295; Log10 Concentration −7.0
  Percent Growth: 90%
SF-295; Log10 Concentration −8.0
  Percent Growth: 97%
SF-295; NCI five dose
  GI50: 17.5 µM
  TGI: 5.21E−5
SK-OV-3; Log10 Concentration −4.0
  Percent Growth: −26%
SK-OV-3; Log10 Concentration −5.0
  Percent Growth: 91%
SK-OV-3; Log10 Concentration −6.0
  Percent Growth: 105%
SK-OV-3; Log10 Concentration −7.0
  Percent Growth: 90%
SK-OV-3; Log10 Concentration −8.0
  Percent Growth: 101%
SK-OV-3; NCI five dose
  GI50: 22.4 µM
  TGI: 5.96E−5
K-562; Log10 Concentration −4.0
  Percent Growth: −16%
K-562; Log10 Concentration −5.0
  Percent Growth: 16%
K-562; Log10 Concentration −6.0
  Percent Growth: 92%
K-562; Log10 Concentration −7.0
  Percent Growth: 92%
K-562; Log10 Concentration −8.0
  Percent Growth: 99%
K-562; NCI five dose
  GI50: 3.58 µM
  TGI: 3.20E−5
LOX IMVI; Log10 Concentration −4.0
  Percent Growth: −91%
LOX IMVI; Log10 Concentration −5.0
  Percent Growth: 21%
LOX IMVI; Log10 Concentration −6.0
  Percent Growth: 92%
LOX IMVI; Log10 Concentration −7.0
  Percent Growth: 95%
LOX IMVI; Log10 Concentration −8.0
  Percent Growth: 96%
LOX IMVI; NCI five dose
  GI50: 3.92 µM
  TGI: 1.55E−5
OVCAR-3; Log10 Concentration −4.0
  Percent Growth: −100%
OVCAR-3; Log10 Concentration −5.0
  Percent Growth: 7%
OVCAR-3; Log10 Concentration −6.0
  Percent Growth: 86%
OVCAR-3; Log10 Concentration −7.0
  Percent Growth: 100%
OVCAR-3; Log10 Concentration −8.0
  Percent Growth: 99%
OVCAR-3; NCI five dose
  GI50: 2.87 µM
  TGI: 1.17E−5
RXF 393; Log10 Concentration −4.0
  Percent Growth: −76%
RXF 393; Log10 Concentration −5.0
  Percent Growth: −2%
RXF 393; Log10 Concentration −6.0
  Percent Growth: 75%
RXF 393; Log10 Concentration −7.0
  Percent Growth: 107%
RXF 393; Log10 Concentration −8.0
  Percent Growth: 99%
RXF 393; NCI five dose
  GI50: 2.12 µM
  TGI: 9.35E−6
NCI-H322M; Log10 Concentration −4.0
  Percent Growth: −17%
NCI-H322M; Log10 Concentration −5.0
  Percent Growth: 78%
NCI-H322M; Log10 Concentration −6.0
  Percent Growth: 97%
NCI-H322M; Log10 Concentration −7.0
  Percent Growth: 94%
NCI-H322M; Log10 Concentration −8.0
  Percent Growth: 98%
NCI-H322M; NCI five dose
  GI50: 19.7 µM
  TGI: 6.62E−5
UACC-257; Log10 Concentration −4.0
  Percent Growth: −91%
UACC-257; Log10 Concentration −5.0
  Percent Growth: 24%
UACC-257; Log10 Concentration −6.0
  Percent Growth: 73%
UACC-257; Log10 Concentration −7.0
  Percent Growth: 94%
UACC-257; Log10 Concentration −8.0
  Percent Growth: 94%
UACC-257; NCI five dose
  GI50: 2.96 µM
  TGI: 1.62E−5
BT-549; Log10 Concentration −4.0
  Percent Growth: −96%
BT-549; Log10 Concentration −6.0
  Percent Growth: 74%
BT-549; Log10 Concentration −7.0
  Percent Growth: 86%
BT-549; Log10 Concentration −8.0
  Percent Growth: 105%
BT-549; NCI five dose
  GI50: 2.13 µM
  TGI: 9.96E−6
HOP-62; Log10 Concentration −4.0
  Percent Growth: −86%
HOP-62; Log10 Concentration −5.0
  Percent Growth: 72%
HOP-62; Log10 Concentration −6.0
  Percent Growth: 92%
HOP-62; Log10 Concentration −7.0
  Percent Growth: 86%
HOP-62; Log10 Concentration −8.0
  Percent Growth: 95%
HOP-62; NCI five dose
  GI50: 13.9 µM
  TGI: 2.87E−5
A549/ATCC; Log10 Concentration −4.0
  Percent Growth: −88%
A549/ATCC; Log10 Concentration −5.0
  Percent Growth: 71%
A549/ATCC; Log10 Concentration −6.0
  Percent Growth: 95%
A549/ATCC; Log10 Concentration −7.0
  Percent Growth: 99%
A549/ATCC; Log10 Concentration −8.0
  Percent Growth: 100%
A549/ATCC; NCI five dose
  GI50: 13.5 µM
  TGI: 2.80E−5
